Data published in ChEMBL document CHEMBL6120948, “Design, Synthesis, and Biological Evaluation of Lysine-Stapled Peptide Inhibitors of p53-MDM2/MDMX Interactions with Potent Antitumor Activity In Vivo” (J Med Chem, 2024).
pIC50: −log10 of the molar value.

Key:
[1] = Drug distribution in nucleus of human HCT-116 cells at 40 uM incubated for 4 hrs by Hoechst 33342/DiD dye based confocal microscopy; assay type: ADME, subcellular; details: hct-116, 4 h
[2] = Drug distribution in cytoplasm of human HCT-116 cells at 40 uM incubated for 4 hrs by Hoechst 33342/DiD dye based confocal microscopy; assay type: ADME, subcellular; details: hct-116, 4 h
[3] = Induction of alpha-helical conformation in phosphate buffer at pH 7 at 100 uM by CD analysis; assay type: physicochemical; details: pH 7, 100 µM
[4] = Antiproliferative activity against human U-87 MG cells expressing wild-type p53 incubated for 72 hrs by MTT assay; assay type: functional, cell-based, U-87MG ATCC
[5] = tested on: MCF7; assay: Antiproliferative activity against human MCF7 cells expressing wild-type p53 incubated for 72 hrs by MTT assay; assay type: functional, cell-based; details: MCF7, 72 h

SMILES	Drug uptake [1]	Drug uptake [2]	Activity [3]	pIC50 [4]	pIC50 [5]
CC(C)C[C@H](NC(=O)CCNC(=O)c1ccc2c(c1)C(=O)OC21c2ccc(O)cc2Oc2cc(O)ccc21)C(=O)N[C@H](C(=O)N[C@@H](Cc1ccccc1)C(=O)N[C@H]1CCCCNCc2cccc(c2)CNCCCC[C@@H](C(=O)N[C@@H](CCC(N)=O)C(=O)N[C@@H](CC(C)C)C(=O)N[C@H](C(=O)N[C@@H](CO)C(=O)N[C@@H](C)C(=O)N[C@@H](C)C(N)=O)[C@@H](C)O)NC(=O)[C@H](Cc2c[nH]c3ccccc23)NC(=O)[C@H](Cc2ccc(O)cc2)NC(=O)[C@H](Cc2c[nH]cn2)NC1=O)[C@@H](C)O	Active	Active			
CC(=O)N[C@@H](CC(C)C)C(=O)N[C@H](C(=O)N[C@@H](Cc1ccccc1)C(=O)N[C@H]1CCCCNCC#CCNCCCC[C@@H](C(=O)N[C@@H](CO)C(=O)N[C@@H](C)C(=O)N[C@@H](C)C(N)=O)NC(=O)[C@H](CC(C)C)NC(=O)[C@H](CCC(N)=O)NC(=O)[C@H](C)NC(=O)[C@H](Cc2c[nH]c3ccccc23)NC(=O)[C@H](Cc2ccc(O)cc2)NC(=O)[C@H](Cc2c[nH]cn2)NC1=O)[C@@H](C)O			11%	< 3.80	< 3.80
CSCC[C@H](NC(=O)[C@H](CC(C)C)NC(=O)[C@H](CCC(N)=O)NC(=O)[C@@H]1CCCCNCc2ccccc2CNCCCC[C@H](NC(=O)[C@H](Cc2ccccc2)NC(=O)[C@@H](NC(=O)[C@H](CC(C)C)NC(C)=O)[C@@H](C)O)C(=O)N[C@@H](CCC(=O)O)C(=O)N[C@@H](Cc2ccc(O)cc2)C(=O)N[C@@H](Cc2c[nH]c3ccccc23)C(=O)N1)C(=O)N[C@@H](CCC(N)=O)C(=O)N[C@@H](C)C(=O)N[C@@H](C)C(N)=O			11%	3.98	< 3.80
CSCC[C@H](NC(=O)[C@H](CC(C)C)NC(=O)[C@H](CCC(N)=O)NC(=O)[C@@H]1CCCCNCc2cccc(c2)CNCCCC[C@H](NC(=O)[C@H](Cc2ccccc2)NC(=O)[C@@H](NC(=O)[C@H](CC(C)C)NC(C)=O)[C@@H](C)O)C(=O)N[C@@H](CCC(=O)O)C(=O)N[C@@H](Cc2ccc(O)cc2)C(=O)N[C@@H](Cc2c[nH]c3ccccc23)C(=O)N1)C(=O)N[C@@H](CCC(N)=O)C(=O)N[C@@H](C)C(=O)N[C@@H](C)C(N)=O			11%	4.66	< 3.80
CC(=O)N[C@@H](CC(C)C)C(=O)N[C@H](C(=O)N[C@@H](Cc1ccccc1)C(=O)N[C@@H](CCC(=O)O)C(=O)N[C@H]1CCCCNCC#CCNCCCC[C@@H](C(=O)N[C@@H](CC(C)C)C(=O)N[C@H](C(=O)N[C@@H](CO)C(=O)N[C@@H](C)C(=O)N[C@@H](C)C(N)=O)[C@@H](C)O)NC(=O)[C@H](C)NC(=O)[C@H](Cc2c[nH]c3ccccc23)NC(=O)[C@H](Cc2ccc(O)cc2)NC1=O)[C@@H](C)O			11%	< 3.80	4.70
CC(=O)N[C@@H](CC(C)C)C(=O)N[C@H](C(=O)N[C@@H](Cc1ccccc1)C(=O)N[C@H]1CCCCNCc2ccccc2CNCCCC[C@@H](C(=O)N[C@@H](CCC(N)=O)C(=O)N[C@@H](CC(C)C)C(=O)N[C@H](C(=O)N[C@@H](CO)C(=O)N[C@@H](C)C(=O)N[C@@H](C)C(N)=O)[C@@H](C)O)NC(=O)[C@H](Cc2c[nH]c3ccccc23)NC(=O)[C@H](Cc2ccc(O)cc2)NC(=O)[C@H](Cc2c[nH]cn2)NC1=O)[C@@H](C)O			11%	< 3.80	4.95
CSCC[C@H](NC(=O)[C@H](CC(C)C)NC(=O)[C@H](CCC(N)=O)NC(=O)[C@@H]1CCCCNCC#CCNCCCC[C@H](NC(=O)[C@H](Cc2ccccc2)NC(=O)[C@@H](NC(=O)[C@H](CC(C)C)NC(C)=O)[C@@H](C)O)C(=O)N[C@@H](CCC(=O)O)C(=O)N[C@@H](Cc2ccc(O)cc2)C(=O)N[C@@H](Cc2c[nH]c3ccccc23)C(=O)N1)C(=O)N[C@@H](CCC(N)=O)C(=O)N[C@@H](C)C(=O)N[C@@H](C)C(N)=O			11%	< 3.80	3.95
CSCC[C@H](NC(=O)[C@H](CC(C)C)NC(=O)[C@H](CCC(N)=O)NC(=O)[C@@H]1CCCCNCc2ccc(cc2)CNCCCC[C@H](NC(=O)[C@H](Cc2ccccc2)NC(=O)[C@@H](NC(=O)[C@H](CC(C)C)NC(=O)CCNC(=O)c2ccc3c(c2)C(=O)OC32c3ccc(O)cc3Oc3cc(O)ccc32)[C@@H](C)O)C(=O)N[C@@H](CCC(=O)O)C(=O)N[C@@H](Cc2ccc(O)cc2)C(=O)N[C@@H](Cc2c[nH]c3ccccc23)C(=O)N1)C(=O)N[C@@H](CCC(N)=O)C(=O)N[C@@H](C)C(=O)N[C@@H](C)C(N)=O		Not_active			
CC(=O)N[C@@H](CC(C)C)C(=O)N[C@H](C(=O)N[C@@H](Cc1ccccc1)C(=O)N[C@@H](CCC(=O)O)C(=O)N[C@H]1CCCCNCc2ccccc2CNCCCC[C@@H](C(=O)N[C@@H](CC(C)C)C(=O)N[C@H](C(=O)N[C@@H](CO)C(=O)N[C@@H](C)C(=O)N[C@@H](C)C(N)=O)[C@@H](C)O)NC(=O)[C@H](C)NC(=O)[C@H](Cc2c[nH]c3ccccc23)NC(=O)[C@H](Cc2ccc(O)cc2)NC1=O)[C@@H](C)O			11%	< 3.80	3.84
